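Following 48 hours of exposure in 96-well plates, responses at five concentrations were used to interpolate endpoints linearly. GI50 marks 50% less growth.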 Active and inactive are the calls of the source. Rule as the data show it: active = GI50 up to about 1.1 µM and inactive = higher. Non-standard residues stand in square brackets, D forms with d. Residues, ends and D or L forms follow the SMILES beside them. *: point of attachment. Phe(4-NO2) = N[CH](Cc1ccc([N+](=O)[O-])cc1)C(=O)O; Boc = CC(C)(C)OC(=O)*
Columns and labels:
Test in all cases: NCI tumour cell line growth inhibition, 48 h
[1] = test system: DU-145
[2] = test system: LOX IMVI
[3] = test system: K562
[4] = test system: NCI-H522
[5] = test system: A549
[6] = test system: SK-MEL-2
[7] = test system: OVCAR-3
[8] = test system: OVCAR-5
[9] = test system: SW-620
[10] = test system: HL-60
[11] = test system: SK-MEL-28
[12] = test system: UO-31
[13] = test system: Malme-3M
[14] = test system: MCF7
[15] = test system: SK-MEL-5
[16] = test system: SF-295
[17] = test system: NCI/ADR-RES
[18] = test system: OVCAR-8
[19] = test system: NCI-H226

Measured: GI50

N#CC1=C(N)C(C#N)(C#N)C(c2ccc(F)cc2)C=C1C1CC1 (stereo not given)
inactive: [1] 12.9 µM | [2] 3.94 µM | [3] 6.03 µM | [4] 3.78 µM | [5] 13.8 µM | [6] 6.52 µM | [7] 5.27 µM | [8] 12.6 µM | [9] 6.95 µM | [10] 4.13 µM | [11] 12.4 µM | [12] 14 µM | [13] 11.5 µM | [14] 5.09 µM | [15] 4.46 µM | [16] 11.2 µM | [17] 14.5 µM | [18] 9.93 µM

COc1ccc(C#CC(=O)O)c(OC)c1
inactive: [1] > 100 µM | [2] > 100 µM | [19] > 100 µM | [3] > 100 µM | [5] > 100 µM | [6] > 100 µM | [7] > 100 µM | [8] > 100 µM | [9] > 100 µM | [10] > 100 µM | [11] > 100 µM | [12] > 100 µM | [13] > 100 µM | [14] > 100 µM | [15] > 100 µM | [16] > 100 µM | [17] > 100 µM | [18] > 100 µM

CCOC(=O)C1=CN/C(=C(/C)C(=O)OC)SC1C(=O)OCC (stereo not given)
inactive: [1] > 100 µM | [2] > 100 µM | [19] > 100 µM | [3] 17.5 µM | [4] > 76.7 µM | [5] > 100 µM | [6] > 100 µM | [7] > 100 µM | [8] > 100 µM | [9] > 100 µM | [11] > 100 µM | [12] > 78.5 µM | [13] > 100 µM | [14] > 93.5 µM | [15] 58.3 µM | [16] > 100 µM | [17] > 84.3 µM | [18] > 100 µM

COCCCNc1c2ccccc2nc2ccccc12
inactive: [1] 2.52 µM | [2] 2.22 µM | [3] 3.23 µM | [4] 1.64 µM | [5] 2.92 µM | [6] 2.17 µM | [7] 2.47 µM | [8] 2.17 µM | [9] 2.44 µM | [10] 3.87 µM | [11] 2.44 µM | [12] 2.05 µM | [13] 1.87 µM | [14] 2.34 µM | [15] 2.14 µM | [16] 3.61 µM | [17] 3.82 µM | [18] 2.68 µM

C[C@]12C[C@H](O)[C@H]3[C@@H](CCC4=CC(=O)CC[C@@]43C)[C@@H]1CC[C@@H]2c1csc(-c2ccccc2)n1
inactive: [1] > 51.6 µM | [2] > 58.3 µM | [19] > 58.1 µM | [3] 1.52 µM | [4] 4.16 µM | [5] 11.2 µM | [6] > 34 µM | [7] > 22.4 µM | [8] > 100 µM | [9] 39.5 µM | [11] > 100 µM | [13] > 44.2 µM | [14] > 23 µM | [16] > 100 µM | [17] 46.6 µM | [18] 35.8 µM

O=C(Nc1ccc(Cl)c(Cl)c1)OCCN1c2ccccc2Sc2ccccc21
inactive: [1] > 10 µM | [2] > 10 µM | [3] > 10 µM | [4] > 10 µM | [5] > 10 µM | [7] > 10 µM | [8] > 10 µM | [9] > 10 µM | [10] > 10 µM | [11] > 10 µM | [13] > 10 µM | [14] > 10 µM | [15] > 10 µM | [16] > 10 µM | [17] > 10 µM | [18] > 10 µM

CC(C)(Br)C(Br)CCC(C)(Br)C(Br)CO (stereo not given)
inactive: [1] > 10 µM | [19] > 10 µM | [3] > 10 µM | [4] > 10 µM | [5] > 10 µM | [7] > 10 µM | [9] > 10 µM | [11] > 10 µM | [12] > 10 µM | [13] > 10 µM | [14] > 10 µM | [15] > 10 µM | [16] > 10 µM | [17] > 10 µM | [18] > 10 µM

O=c1[nH]nc(Cc2ccccc2)n1/N=C/c1cccnc1
inactive: [1] > 100 µM | [2] > 100 µM | [19] > 100 µM | [3] > 100 µM | [4] > 100 µM | [5] > 100 µM | [7] > 100 µM | [8] > 100 µM | [9] > 100 µM | [10] > 100 µM | [11] > 100 µM | [12] 71.6 µM | [13] > 100 µM | [14] > 100 µM | [15] > 100 µM | [16] > 100 µM | [17] > 100 µM | [18] > 100 µM

Nc1n2nc(-c3ccccc3)sc2n[n+]1CC(=O)c1ccccc1
inactive: [1] 17.8 µM | [2] 11.1 µM | [19] 16.7 µM | [3] 3.09 µM | [4] 15.8 µM | [5] 21.2 µM | [6] 38.5 µM | [7] 14.7 µM | [8] 34.8 µM | [9] 4.89 µM | [11] 25.4 µM | [12] 16.6 µM | [13] > 10 µM | [14] 5.37 µM | [15] 7.43 µM | [16] 14 µM | [17] 14 µM | [18] 15.1 µM

O=C(/C=C/c1ccc(O)c(O)c1)O[C@H]1CCCC[C@@H]1OC(=O)/C=C/c1ccc(O)c(O)c1
inactive: [1] 13.8 µM | [2] 3.45 µM | [3] 7.57 µM | [4] 5.22 µM | [5] 11.7 µM | [6] 22.7 µM | [7] 5.51 µM | [8] 15.6 µM | [9] 3.52 µM | [11] 15.8 µM | [12] 7.03 µM | [13] 15.7 µM | [14] 19.2 µM | [15] 6.04 µM | [16] 12.9 µM | [17] 21.8 µM | [18] 10.9 µM

COC(=O)CCC(NC(=O)OC(C)(C)C)C(=O)NC(Cc1ccc([N+](=O)[O-])cc1)C(=O)NC(CCC(=O)OC)C(=O)OC (stereo not given) (Boc-Glu(OMe)-[Phe(4-NO2)]-Glu(OMe)-OMe; configuration not given here)
inactive: [1] > 100 µM | [2] 26.6 µM | [19] 74.8 µM | [3] 35.4 µM | [4] > 100 µM | [5] > 100 µM | [6] > 100 µM | [7] > 100 µM | [8] > 100 µM | [9] > 100 µM | [11] > 100 µM | [12] > 100 µM | [13] > 100 µM | [14] > 100 µM | [15] > 100 µM | [16] > 100 µM | [17] > 100 µM | [18] > 100 µM

Source: ChEMBL document CHEMBL1201862, “PubChem BioAssay data set” (2004)
